Results taken from US8921555B2, “Substituted-1,3,8-triazaspiro[4.5]decane-2,4-diones” (Merck Sharp & Dohme Corp., priority 2009, dated 2014).
pIC50: −log10 of the molar value.

The compounds below were run against T1, HIF-PHD2 (Homo sapiens, UniProt Q9GZT9) (assay: Assay for HIF-PHD2 Catalytic Activity (PHD2 Binding Activity)). Conditions: not given.
T1 construct: FLAG-tagged full length PHD2 expressed in and purified from baculovirus-infected Sf9 cells; FLAG; made in house; host or cells: baculovirus-infected Sf9 cells
Format: biochemical

T1 sequence (Q9GZT9 whole entry): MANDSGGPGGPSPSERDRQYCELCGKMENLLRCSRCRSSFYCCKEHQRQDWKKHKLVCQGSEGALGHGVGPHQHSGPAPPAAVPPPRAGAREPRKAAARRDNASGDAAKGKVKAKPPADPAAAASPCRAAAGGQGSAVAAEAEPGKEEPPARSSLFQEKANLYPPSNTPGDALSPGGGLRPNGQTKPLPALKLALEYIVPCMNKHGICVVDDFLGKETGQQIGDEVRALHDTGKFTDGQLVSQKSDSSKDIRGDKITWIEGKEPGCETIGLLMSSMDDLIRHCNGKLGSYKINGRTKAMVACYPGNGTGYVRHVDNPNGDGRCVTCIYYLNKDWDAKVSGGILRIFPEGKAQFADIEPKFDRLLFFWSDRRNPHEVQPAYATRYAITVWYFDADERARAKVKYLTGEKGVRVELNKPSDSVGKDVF

Structure (SMILES)	pIC50
COc1cc(O)nc(N2C(=O)N(c3ccc(-c4ccccc4)cc3)C(=O)C23CCN(Cc2ncccc2C)CC3)n1 [Compound 1-56, 3-biphenyl-4-yl-1-(4-hydroxy-6-methoxypyrimidin-2-yl)-8-[(3-methylpyridin-2-yl)methyl]-1,3,8-triazaspiro[4.5]decane-2,4-dione]	7.70 to 9.30
CCCCOC(=O)c1[nH]cnc1CN1CCC2(CC1)C(=O)N(c1ccc(-c3ccccc3)cc1)C(=O)N2c1cc(OC)ncn1 [Compound 1-48, Butyl 4-{[3-biphenyl-4-yl-1-(6-methoxypyrimidin-4-yl)-2,4-dioxo-1,3,8-triazaspiro[4.5]dec-8-yl]methyl}-1-H-imidazole-5-carboxylate]	7.70 to 9.30
O=C(O)CN1CCC2(CC1)C(=O)N(c1ccc(-c3ccccc3)cc1)C(=O)N2c1cnccn1 [Compound 2-3, (3-biphenyl-4-yl-2,4-dioxo-1-pyrazin-2-yl-1,3,8-triazaspiro[4.5]dec-8-yl)acetic acid]	7.70 to 9.30
Cc1cccnc1CN1CCC2(CC1)C(=O)N(c1ccc(-c3cccc(C(=O)O)c3)cc1)C(=O)N2c1ncccn1 [Compound 1-66, 4′-{8-[(3-methylpyridin-2-yl)methyl]-2,4-dioxo-1-pyrimidin-2-yl-1,3,8-triazaspiro[4.5]dec-3-yl}biphenyl-3-carboxylic acid]	7.70 to 9.30
Cc1cccnc1CN1CCC2(CC1)C(=O)N(c1ccc(-c3nnn[nH]3)cc1)C(=O)N2c1nccc(O)n1 [Compound 1-16, 1-(4-hydroxypyrimidin-2-yl)-8-[(3-methylpyridin-2-yl)methyl]-3-[4-(1H-tetrazol-5-yl)phenyl]-1,3,8-triazaspiro[4.5]decane-2,4-dione]	< 7.30
O=C(O)CN1CCC2(CC1)C(=O)N(c1ccc(-c3ccccc3)cc1)C(=O)N2c1ncccn1 [Compound 2-5, (3-biphenyl-4-yl-2,4-dioxo-1-pyrimidin-2-yl-1,3,8-triazaspiro[4.5]dec-8-yl)acetic acid]	7.70 to 9.30
COc1ccnc(N2C(=O)N(c3ccc(-c4ccccc4)cc3)C(=O)C23CCN(CC(=O)O)CC3)n1 [Compound 2-6, [3-biphenyl-4-yl-1-(4-methoxypyrimidin-2-yl)-2,4-dioxo-1,3,8-triazaspiro[4.5]dec-8-yl]acetic acid]	7.70 to 9.30
Cc1cccnc1CN1CCC2(C(=O)N(c3ccc(-c4ccccc4)cc3)C(=O)N2c2nccc(O)n2)C(C(=O)O)C1 (stereo not shown) [Compound 3-4, 3-biphenyl-4-yl-1-(4-hydroxypyrimidin-2-yl)-8-[(3-methylpyridin-2-yl)methyl]-2,4-dioxo-1,3,8-triazaspiro[4.5]decane-6-carboxylic acid]	7.70 to 9.30
CCCCOC(=O)c1[nH]cnc1CN1CCC2(CC1)C(=O)N(c1ccc(-c3ccccc3)cc1)C(=O)N2c1nccc(OC)n1 [Compound 1-47, Butyl 4-{[3-biphenyl-4-yl-1-(4-methoxypyrimidin-2-yl)-2,4-dioxo-1,3,8-triazaspiro[4.5]dec-8-yl]methyl}-1-H-imidazole-5-carboxylate]	7.30 to 7.70
COC(=O)c1ccc(-c2ccc(N3C(=O)N(c4ncccn4)C4(CCN(Cc5ncccc5C)CC4)C3=O)cc2)cc1 [Compound 1-61, Methyl 4′-{8-[(3-methylpyridin-2-yl)methyl]-2,4-dioxo-1-pyrimidin-2-yl-1,3,8-triazaspiro[4.5]dec-3-yl}biphenyl-4-carboxylate]	7.70 to 9.30
O=C(O)CN1CCC2(CC1)C(=O)N(c1ccc(-c3ccccc3)cc1)C(=O)N2c1cncnc1 [Compound 2-4, (3-biphenyl-4-yl-2,4-dioxo-1-pyrimidin-5-yl-1,3,8-triazaspiro[4.5]dec-8-yl)acetic acid]	7.30 to 7.70
Cc1cc(N2C(=O)N(c3ccc(-c4ccc(C(=O)O)cc4)cc3)C(=O)C23CCN(Cc2ncccc2C)CC3)ncn1 [Compound 7-9, 4′-[8-[(3-methylpyridin-2-yl)methyl]-1-(6-methylpyrimidin-4-yl)-2,4-dioxo-1,3,8-triazaspiro[4.5]dec-3-yl]biphenyl-4-carboxylic acid]	7.70 to 9.30
COc1ccnc(N2C(=O)N(c3ccccc3)C(=O)C23CCN(Cc2ncccc2C)CC3)n1 [Compound 1-30, 1-(4-methoxypyrimidin-2-yl)-8-[(3-methylpyridin-2-yl)methyl]-3-phenyl-1,3,8-triazaspiro[4.5]decane-2,4-dione]	< 7.30
Cc1cccnc1CN1CCC2(CC1)C(=O)N(c1ccc(-c3ccccc3)cc1)C(=O)N2c1nccc(C(=O)O)n1 [Compound 1-59, 2-{3-biphenyl-4-yl-8-[(3-methylpyridin-2-yl)methyl]-2,4-dioxo-1,3,8-triazaspiro[4.5]dec-1-yl}pyrimidine-4-carboxylic acid]	7.70 to 9.30
Cc1cccnc1CN1CCC2(CC1)C(=O)N(c1ccc(C(=O)O)cc1)C(=O)N2c1nccc(O)n1 [Compound 1-17, 4-{1-(4-hydroxypyrimidin-2-yl)-8-[(3-methylpyridin-2-yl)methyl]-2,4-dioxo-1,3,8-triazaspiro[4.5]dec-3-yl}benzoic acid]	< 7.30
Cc1cccnc1CN1CCC2(CC1)C(=O)N(c1ccc(-c3ccc(CC(=O)O)cc3)cc1)C(=O)N2c1ncccn1 [Compound 1-67, (4′-{8-[(3-methylpyridin-2-yl)methyl]-2,4-dioxo-1-pyrimidin-2-yl-1,3,8-triazaspiro[4.5]dec-3-yl}biphenyl-4-yl)acetic acid]	7.30 to 7.70
COc1ccnc(N2C(=O)N(c3ccc(-c4ccccc4)cc3)C(=O)C23CCN(Cc2ncccc2C#N)CC3)n1 [Compound 1-40, 2-{[3-biphenyl-4-yl-1-(4-methoxypyrimidin-2-yl)-2,4-dioxo-1,3,8-triazaspiro[4.5]dec-8-yl]methyl}nicotinonitrile]	< 7.30
Cc1cccnc1CN1CCC2(CC1)C(=O)N(c1ccccc1)C(=O)N2c1nccc(O)n1 [Compound 1-3, 1-(4-hydroxypyrimidin-2-yl)-8-[(3-methylpyridin-2-yl)methyl]-3-phenyl-1,3,8-triazaspiro[4.5]decane-2,4-dione]	< 7.30
COc1ccnc(N2C(=O)N(c3ccc(-c4ccccc4)cc3)C(=O)C23CCN(Cc2ncccc2C)CC3)n1 [Compound 1-29, 3-biphenyl-4-yl-1-(4-methoxypyrimidin-2-yl)-8-[(3-methylpyridin-2-yl)methyl]-1,3,8-triazaspiro[4.5]decane-2,4-dione]	7.70 to 9.30
COC(=O)c1cccc(N2C(=O)N(c3ccc(-c4ccccc4)cc3)C(=O)C23CCN(Cc2ncccc2C)CC3)n1 [Compound 1-13, methyl 6-{3-biphenyl-4-yl-8-[(3-methylpyridin-2-yl)methyl]-2,4-dioxo-1,3,8-triazaspiro[4.5]dec-1-yl}pyridine-2-carboxylate]	7.70 to 9.30
Cc1cccnc1CN1CCC2(C(=O)N(c3ccc(-c4ccccc4)cc3)C(=O)N2c2cc(O)ncn2)C(C(=O)O)C1 (stereo not shown) [Compound 3-7, 3-biphenyl-4-yl-1-(6-hydroxypyrimidin-4-yl)-8-[(3-methylpyridin-2-yl)methyl]-2,4-dioxo-1,3,8-triazaspiro[4.5]decane-6-carboxylic acid]	7.70 to 9.30
Cc1cccnc1CN1CCC2(CC1)C(=O)N(c1ccc(-c3ccccc3)cc1)C(=O)N2c1ncccc1O [Compound 1-43, 3-biphenyl-4-yl-1-(3-hydroxypyridin-2-yl)-8-[(3-methylpyridin-2-yl)methyl]-1,3,8-triazaspiro[4.5]decane-2,4-dione]	7.30 to 7.70
Cc1cccnc1CN1CCC2(CC1)C(=O)N(c1ccc(Br)cc1)C(=O)N2c1cc(-c2ccc(C(=O)O)cc2)ncn1 [Compound 7-15, 4-(6-{3-(4-bromophenyl)-8-[(3-methylpyridin-2-yl)methyl]-2,4-dioxo-1,3,8-triazaspiro[4.5]dec-1-yl}pyrimidin-4-yl)benzoic acid]	7.70 to 9.30
Cc1cc(C(=O)O)ccc1-c1ccc(N2C(=O)N(c3cccnn3)C3(CCN(Cc4ncccc4C)CC3)C2=O)cc1 [Compound 9-2, 2-methyl-4′-{8-[(3-methylpyridin-2-yl)methyl]-2,4-dioxo-1-pyridazin-3-yl-1,3,8-triazaspiro[4.5]dec-3-yl}biphenyl-4-carboxylic acid]	7.70 to 9.30
Cc1cccnc1CN1CCC2(CC1)C(=O)N(c1ccc(-c3ccccc3)cc1)C(=O)N2c1cccc(C(=O)O)n1 [Compound 1-14, 6-{3-biphenyl-4-yl-8-[(3-methylpyridin-2-yl)methyl]-2,4-dioxo-1,3,8-triazaspiro[4.5]dec-1-yl}pyridine-2-carboxylic acid]	7.70 to 9.30
COc1ccnc(CN2CCC3(CC2)C(=O)N(c2ccc(-c4ccc(C(=O)O)cc4)nc2)C(=O)N3c2cc(OC)ncn2)c1 [Compound 10-3, 4-(5-{8-[(4-methoxypyridin-2-yl)methyl]-1-(6-methoxypyrimidin-4-yl)-2,4-dioxo-1,3,8-triazaspiro[4.5]dec-3-yl}-pyridin-2-yl) benzoic acid]	7.70 to 9.30
Cc1cccnc1CN1CCC2(CC1)C(=O)N(c1ccc(-c3ccccc3)cc1)C(=O)N2c1ccncc1 [Compound 1-8, 3-biphenyl-4-yl-8-[(3-methylpyridin-2-yl)methyl]-1-pyridin-4-yl-1,3,8-triazaspiro[4.5]decane-2,4-dione]	7.30 to 7.70
COc1ccnc(N2C(=O)N(c3ccc(-c4ccccc4)cc3)C(=O)C23CCN(Cc2nnn[nH]2)CC3)n1 [Compound 1.39, 3-biphenyl-4-yl-1-(4-methoxypyrimidin-2-yl)-8-(1H-tetrazol-5-ylmethyl)-1,3,8-triazaspiro[4.5]decane-2,4-dione]	< 7.30
COc1ccnc(N2C(=O)N(c3ccc(-c4ccccc4)cc3)C(=O)C23CCN(Cc2nc[nH]c2C)CC3)n1 [Compound 1-49, 3-biphenyl-4-yl-1-(4-methoxypyrimidin-2-yl)-8-[(5-methyl-1-H-imidazol-4-yl)methyl]-1,3,8-triazaspiro[4.5]decane-2,4-dione]	7.70 to 9.30

Same assay, conditions: read-out: PHD2 Binding Activity IC50

Structure (SMILES)	pIC50
Cc1cccnc1CN1CCC2(CC1)C(=O)N(c1ccc(-c3ccccc3)cc1)C(=O)N2C [Compound 2-1, 3-biphenyl-4-yl-1-methyl-8-[(3-methylpyridin-2-yl)methyl]-1,3,8-triazaspiro[4.5]decane-2,4-dione]	7.70 to 9.30
Cc1cccnc1CN1CCC2(CC1)C(=O)N(c1ccc(-c3ccccc3)cc1)C(=O)N2C(=O)CCC(=O)O [Compound 5-7, 4-{3-biphenyl-4-yl-8-[(3-methylpyridin-2-yl)methyl]-2,4-dioxo-1,3,8-triazaspiro[4.5]dec-1-yl}-4-oxobutanoic acid]	7.70 to 9.30
